Consider one substance from patent publication US20240424022A1, “IN VIVO AND EX VIVO METHODS OF MODULATING T CELL EXHAUSTION/DE-EXHAUSTION” (Flagship Pioneering Innovations VI, LLC, priority 2021, published 2024).

Test [1] relates to colon adenocarcinoma cell line, MC38. Description: Efficacy study in MC38 syngeneic mice, tumor growth inhibition. The class given is in vivo, mouse. The note with it: doses per Table 5 (Anti-PD-1 200 ug IP BIWx3, by day 9; Perturbagen 1 10 mg/kg IP QDx10), Table 3 numbering.
For test [2], the system named is CD8+ T cells derived from tumors. Description: Flow cytometry of tumor infiltrating T lymphocytes, MC38 syngeneic mouse model. Format: in vivo. The note with it: MC38 mice, day after final dose, doses per Table 5, Table 3 numbering. From the text:
(§1) The day after the final dose, mice were euthanized, blood was collected by cardiac puncture and the tumors were removed. For all mice, a section of tumor was flash frozen in liquid nitrogen and stored at −80 degrees C. for future analysis; the remainder of the tumor was placed in cold RPMI (with glucose) and processed to generate a single cell suspension for flow cytometry. For a pre-selected subgroup of mice, a sample of the single cell suspension was collected for scRNAseq (3 samples from 5 treatment groups provided 15 samples for 2 runs on a 10× Chromium box). Each tumor was minced with a clean razor blade to the consistency of chopped garlic. The tumor was placed in a digestive enzyme mix (mouse tumor dissociation kit, Miltenyi) and incubated on a dissociator at 37 degrees C. for 45 min (OctoMax). Following dissociation, the slurry was filtered through a 70 μm nylon filter, centrifuged, and the pellet resuspended in Ammonium-Chloride-Potassium (ACK) lysing buffer for 3 minutes to lyse red blood cells. The ACK buffer was neutralized with 10-fold excess PBS and then the cell suspension was centrifuged to concentrate the cells. Cell suspensions from all tumors were stored on ice until analyzed by flow cytometry.
For flow cytometry, samples of each cell suspension were incubated at room temperature for one hour with an antibody panel optimized for detection of effector and exhausted T cells (Tables 6 and 7). Prior to intracellular staining, samples were permeabilized and fixed using the eBioscience™ Foxp3 Transcription Factor Staining Buffer Set (ThermoFisher) according to the manufacturer's recommendations. Samples were then incubated for one hour with the intracellular staining mix, then centrifuged and resuspended for flow cytometric analysis. Following compensation measurements using commercial beads, fluorescence minus one (fmo) measurements were performed followed by measurements of all the samples. For each sample, at least 100,000 events were recorded. All analysis for flow cytometry data was performed using FlowJo™ (BD).
For orientation: A flow cytometer gives signals particle by particle.

The next test relates to T cells. Description: scRNAseq analysis of MC38 tumor single cell suspensions. The class given is in vivo. The note with it: MC38 syngeneic mouse, versus PBS.
Source text: as §1
As detailed above, 15 samples of tumor single cell suspension were obtained for single cell RNA sequencing (Table 8). […]

For pembrolizumab, the “Tumor growth inhibition (TGI)” value in test [1] is “significant tumor growth inhibition”. For the same substance, in test [2], the “Expression of PD-1 in CD8+ T cells derived from tumors” value is recorded as “reduced”, the “Expression of TIGIT in CD8+ T cells derived from tumors” value is given as “reduced” and the “Number of CD8+ T cells in the tumor” value is on record as “increased”. The “Density of T cells in scRNAseq manifold” value in the test on T cells was “enhanced”.
